The text below walks through data of publication PMC7073229, “Novel Quinoline Compounds Active in Cancer Cells through Coupled DNA Methyltransferase Inhibition and Degradation” (Cancers, 2020).

Structures are written as SMILES.

The target in assay [1] is T1, C-terminal catalytic domain of human DNMT3A (hDNMT3A) (Homo sapiens, UniProt Q9Y6K1).
T1 construct: the C-terminal catalytic domain of human DNMT3A (hDNMT3A)
Nature of the assay: DNMT3A restriction-based fluorescence assay. The settings on record: for EC50: mean of at least two independent experiments, read-out: Enzyme Inhibition (EC50 ± SD) hDNMT3A. Format: biochemical. As to the method: DNMT3A enzyme inhibition was adapted from the restriction-based fluorescence assay protocol described in Ceccaldi et al.. Briefly, a biotin-labelled oligonucleotide at the 5’ end is hybridized to his complementary strand labelled at the 3’ end with 6-carboxyfluorescein. The DNA duplex containing only one single CpG site overlapping with a restriction site of a methylation sensitive restriction enzyme is transferred in the wells coated with avidin. The methylation reaction is performed by adding human C-terminal DNMT3A at the final concentration of 4 ng/µL in a total volume of 50 µL in the presence of the inhibitors at various concentrations and the co-substrate SAM at the final concentration of 20 µM. The plate was incubated for 1 h at 37 °C, washed, and added with the methylation sensitive restriction enzyme HpyCH4IV, incubated for 1 h further at 37 °C, washed and the fluorescence measured with a PerkinElmer Envision Multilabel Plate Reader. The data are expressed as percentage of inhibition vs. log concentration (M). Data are normalized referring to the “restriction control” (wells coated with labelled duplex not treated nor exposed to DNMT3A, but only cleaved by HpyCH4IV) as the maximum of inhibition (100%) and to the “DMSO control” (wells coated with labelled duplex but treated just with 0.1% DMSO exposed to DNMT3A and then to HpyCH4IV) as the minimum of inhibition (0%; total methylation).

Assay [2] has as its system luciferase reporter under methylated CMV promoter in KG-1 leukemia cells. Nature of the assay: CMV-luc assay in KG-1 cells. Format: cell-based. The settings on record: KG-1 CMV-luc, vs DMSO. As to the method:
The assay was carried out as described by Rilova et al.. The KG-1 cell line was stably transfected with the luciferase firefly (Luc^+ from pGL3 by Promega, Madison, WI, USA) reporter gene under the control of a methylated CMV promoter (from pEGFP-N1 by Clontech) and selected for the maintenance of the methylation of CMV and luciferase expression silencing (KG-1 CMV-luc). The stably integrated KG-1 CMV-luc cells are cultivated in RPMI-1640 medium (Lonza, Strasbourg, France), supplemented with 10% FCS (Lonza, Strasbourg, France) and 0.5 mg/mL of geneticin (Sigma-Aldrich, Saint-Quentin Fallavier, France), under 5% CO2, at 37 °C and seeded at 20,000 cells per well in 96-well plates. After 5 or 24 h of incubation in the presence of compounds or the solvent DMSO, the induction of the promoter is measured by quantification of luciferase with the Brite-lite assay system (PerkinElmer, Villebon-sur-Yvette, France) according to the manufacturer’s protocol. The luminescence is measured on an EnVision Multilabel Plate Reader (PerkinElmer, Villebon-sur-Yvette, France), and the data are expressed as fold induction compared to DMSO control. The mean of 2–4 experiments and its standard error are reported.

The next assay concerns the target IKKalpha (h) (Homo sapiens, UniProt O15111). Nature of the assay: Kinase inhibitory assay (panel). As to conditions: read-out: % inhibition at 10 µM. The format is biochemical. As to the method:
(§1) Experimental procedure of kinase inhibitory assays
(§2) The test compound, reference compound or water (control) were mixed with the enzyme (for the exact amount see table below) in the appropriate buffer. Thereafter, the reaction was initiated by adding the required amount of the appropriate substrate and of ATP, and the mixture is incubated at room temperature (variable reaction time, see table below). For control basal measurements, the enzyme was omitted from the reaction mixture. Following incubation, the reaction was stopped by adding 13 mM
(§3) EDTA. After 5 min, the proper antibody labelled with europium chelate was added. After 60 more min, the fluorescence transfer was measured at λex=337 nm, λem=620 nm and λem=665 nm using a microplate reader (Envision, Perkin Elmer). The enzyme activity was determined by d ividing the signal measured at 665 nm by that measured at 620 nm (ratio). The results are expressed as a percent inhibition of the control enzyme activity. The standard inhibitory reference compound is staurosporine when not differently indicated (see tabl e below), which has been tested in each experiment at several concentrations to obtain an inhibition curve from which its IC 50 value is calculated.
(§4) • Assay volume and format: 10 µL in 384-well plate
(§5) • Compound addition: [100x] solution in solvent then [5x] solution in water • Maximum tolerable DMSO concentration: 1%

The target in the next assay is IRK (h) (InsR) (Homo sapiens, UniProt P06213). Nature of the assay: Kinase inhibitory assay (panel). Format: biochemical. The settings on record: read-out: % inhibition at 10 µM. As to the method:
as §1, §2, §3, §4, §5

A further assay concerns the target PKCbeta 2 (h) (Homo sapiens, UniProt P05771). Nature of the assay: Kinase inhibitory assay (panel). The format is biochemical. The settings on record: read-out: % inhibition at 10 µM. As to the method: as §1, §2, §3, §4, §5
Another assay deals with RAF-1 kinase (h) (Homo sapiens, UniProt P04049). Nature of the assay: Kinase inhibitory assay (panel). Format: biochemical. The settings on record: read-out: % inhibition at 10 µM. As to the method:
as §1, §2, §3, §4, §5

The target in another assay is Src kinase (h) (Homo sapiens, UniProt P12931). In words: Kinase inhibitory assay (panel). Format: biochemical. As to conditions: read-out: % inhibition at 10 µM. As to the method:
as §1, §2, §3, §4, §5

The target in the next assay is TRKA (h) (Homo sapiens, UniProt P04629). In words: Kinase inhibitory assay (panel). The format is biochemical. The settings on record: read-out: % inhibition at 10 µM. As to the method:
as §1, §2, §3, §4, §5

T1 sequence (Q9Y6K1 634-912 limits assumed): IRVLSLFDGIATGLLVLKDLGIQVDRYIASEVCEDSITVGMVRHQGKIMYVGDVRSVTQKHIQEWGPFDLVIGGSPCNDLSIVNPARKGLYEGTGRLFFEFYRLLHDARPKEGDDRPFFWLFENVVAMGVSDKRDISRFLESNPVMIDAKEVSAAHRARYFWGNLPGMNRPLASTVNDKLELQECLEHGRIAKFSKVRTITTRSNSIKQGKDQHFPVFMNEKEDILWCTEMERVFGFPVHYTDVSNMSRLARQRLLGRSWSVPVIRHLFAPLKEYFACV
Chain of RAF-1 kinase (h) (P04049 whole entry): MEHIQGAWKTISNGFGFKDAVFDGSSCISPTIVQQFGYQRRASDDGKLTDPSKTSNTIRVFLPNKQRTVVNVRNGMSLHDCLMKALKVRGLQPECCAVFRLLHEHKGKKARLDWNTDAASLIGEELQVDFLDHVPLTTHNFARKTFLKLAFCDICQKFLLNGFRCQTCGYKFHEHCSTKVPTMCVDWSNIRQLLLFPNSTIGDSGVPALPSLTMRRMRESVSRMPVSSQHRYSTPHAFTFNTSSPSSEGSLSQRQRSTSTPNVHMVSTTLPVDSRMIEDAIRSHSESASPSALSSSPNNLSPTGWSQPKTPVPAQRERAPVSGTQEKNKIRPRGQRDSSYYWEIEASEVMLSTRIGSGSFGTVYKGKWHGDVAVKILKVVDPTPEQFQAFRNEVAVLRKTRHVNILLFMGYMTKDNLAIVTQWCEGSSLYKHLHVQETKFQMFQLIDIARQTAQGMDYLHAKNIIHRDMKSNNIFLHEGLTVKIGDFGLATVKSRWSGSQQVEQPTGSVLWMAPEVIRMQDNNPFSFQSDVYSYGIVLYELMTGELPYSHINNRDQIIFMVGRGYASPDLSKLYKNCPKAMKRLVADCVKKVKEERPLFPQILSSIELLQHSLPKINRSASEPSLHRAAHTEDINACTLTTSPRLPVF
Chain of TRKA (h) (P04629 33-796): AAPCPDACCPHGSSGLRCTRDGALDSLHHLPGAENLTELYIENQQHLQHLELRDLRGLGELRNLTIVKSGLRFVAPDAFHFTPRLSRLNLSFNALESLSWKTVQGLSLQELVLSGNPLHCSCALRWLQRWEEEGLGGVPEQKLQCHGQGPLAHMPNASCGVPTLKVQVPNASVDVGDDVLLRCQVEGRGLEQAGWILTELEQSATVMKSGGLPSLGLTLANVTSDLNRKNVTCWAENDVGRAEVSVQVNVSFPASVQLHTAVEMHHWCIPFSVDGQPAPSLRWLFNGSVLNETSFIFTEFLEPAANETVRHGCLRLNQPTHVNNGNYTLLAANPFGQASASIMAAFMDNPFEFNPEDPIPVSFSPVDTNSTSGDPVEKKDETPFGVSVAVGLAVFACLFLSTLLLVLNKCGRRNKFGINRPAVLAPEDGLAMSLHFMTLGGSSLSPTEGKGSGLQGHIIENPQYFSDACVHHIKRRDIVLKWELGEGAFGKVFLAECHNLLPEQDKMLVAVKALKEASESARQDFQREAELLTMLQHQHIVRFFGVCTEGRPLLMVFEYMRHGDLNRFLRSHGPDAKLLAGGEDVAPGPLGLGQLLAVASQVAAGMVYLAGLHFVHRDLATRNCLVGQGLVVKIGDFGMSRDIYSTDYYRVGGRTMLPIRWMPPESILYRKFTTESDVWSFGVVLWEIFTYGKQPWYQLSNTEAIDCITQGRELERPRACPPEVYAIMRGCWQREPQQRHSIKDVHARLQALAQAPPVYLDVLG
Chain of PKCbeta 2 (h) (P05771 1-673 isoform P05771-2): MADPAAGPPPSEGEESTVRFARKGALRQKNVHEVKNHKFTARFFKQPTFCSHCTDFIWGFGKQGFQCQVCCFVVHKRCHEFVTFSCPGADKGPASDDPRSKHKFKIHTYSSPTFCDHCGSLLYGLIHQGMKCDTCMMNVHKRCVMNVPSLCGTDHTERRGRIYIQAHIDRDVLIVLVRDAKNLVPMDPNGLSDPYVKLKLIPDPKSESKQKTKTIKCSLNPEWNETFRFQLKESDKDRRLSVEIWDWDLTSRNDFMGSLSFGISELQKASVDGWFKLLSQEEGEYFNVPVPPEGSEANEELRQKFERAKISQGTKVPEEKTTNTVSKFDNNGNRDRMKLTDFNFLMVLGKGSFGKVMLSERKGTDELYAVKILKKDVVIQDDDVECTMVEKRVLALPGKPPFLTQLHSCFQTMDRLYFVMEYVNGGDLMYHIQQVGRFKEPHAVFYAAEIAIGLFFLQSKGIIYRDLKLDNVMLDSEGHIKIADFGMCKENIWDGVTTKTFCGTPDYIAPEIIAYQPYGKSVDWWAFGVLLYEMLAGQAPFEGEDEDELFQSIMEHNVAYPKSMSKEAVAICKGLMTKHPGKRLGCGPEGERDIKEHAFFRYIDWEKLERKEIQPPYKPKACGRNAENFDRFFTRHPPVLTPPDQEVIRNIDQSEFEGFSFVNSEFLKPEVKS
Chain of IRK (h) (InsR) (P06213 28-1382): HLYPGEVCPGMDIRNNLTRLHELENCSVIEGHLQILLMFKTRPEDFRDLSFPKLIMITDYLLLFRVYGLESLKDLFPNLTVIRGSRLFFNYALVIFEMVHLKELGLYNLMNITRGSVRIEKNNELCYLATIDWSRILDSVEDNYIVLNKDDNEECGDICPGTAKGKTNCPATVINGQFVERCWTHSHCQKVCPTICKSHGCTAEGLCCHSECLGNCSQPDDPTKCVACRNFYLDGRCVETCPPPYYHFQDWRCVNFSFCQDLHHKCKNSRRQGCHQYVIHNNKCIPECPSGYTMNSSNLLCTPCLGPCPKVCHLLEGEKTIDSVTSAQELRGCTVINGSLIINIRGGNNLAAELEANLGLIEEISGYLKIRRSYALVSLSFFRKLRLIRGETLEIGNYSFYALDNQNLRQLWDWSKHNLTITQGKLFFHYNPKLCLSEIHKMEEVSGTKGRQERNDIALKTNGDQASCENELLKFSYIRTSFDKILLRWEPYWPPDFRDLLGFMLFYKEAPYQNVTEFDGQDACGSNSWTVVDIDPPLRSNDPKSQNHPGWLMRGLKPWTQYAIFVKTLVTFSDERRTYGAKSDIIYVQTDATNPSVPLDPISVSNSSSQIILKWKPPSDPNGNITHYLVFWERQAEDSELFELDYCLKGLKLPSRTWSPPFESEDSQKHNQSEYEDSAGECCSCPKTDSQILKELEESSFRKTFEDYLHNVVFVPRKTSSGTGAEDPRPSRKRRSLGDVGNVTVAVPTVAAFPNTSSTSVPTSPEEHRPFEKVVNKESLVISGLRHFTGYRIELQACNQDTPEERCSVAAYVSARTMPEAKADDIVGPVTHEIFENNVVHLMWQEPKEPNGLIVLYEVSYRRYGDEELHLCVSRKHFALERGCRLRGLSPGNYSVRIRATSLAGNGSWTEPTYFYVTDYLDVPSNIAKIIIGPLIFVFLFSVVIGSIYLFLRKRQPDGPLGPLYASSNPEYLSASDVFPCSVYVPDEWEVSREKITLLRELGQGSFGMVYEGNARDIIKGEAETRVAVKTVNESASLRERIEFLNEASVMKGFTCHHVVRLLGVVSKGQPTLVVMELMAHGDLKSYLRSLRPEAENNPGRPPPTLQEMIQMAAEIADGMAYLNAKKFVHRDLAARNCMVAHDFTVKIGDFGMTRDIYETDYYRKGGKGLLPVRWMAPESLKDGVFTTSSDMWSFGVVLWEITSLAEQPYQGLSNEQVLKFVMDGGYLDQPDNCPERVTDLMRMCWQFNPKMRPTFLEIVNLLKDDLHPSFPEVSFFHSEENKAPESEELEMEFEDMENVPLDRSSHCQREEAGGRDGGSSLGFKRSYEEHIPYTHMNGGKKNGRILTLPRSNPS
Chain of Src kinase (h) (P12931 whole entry): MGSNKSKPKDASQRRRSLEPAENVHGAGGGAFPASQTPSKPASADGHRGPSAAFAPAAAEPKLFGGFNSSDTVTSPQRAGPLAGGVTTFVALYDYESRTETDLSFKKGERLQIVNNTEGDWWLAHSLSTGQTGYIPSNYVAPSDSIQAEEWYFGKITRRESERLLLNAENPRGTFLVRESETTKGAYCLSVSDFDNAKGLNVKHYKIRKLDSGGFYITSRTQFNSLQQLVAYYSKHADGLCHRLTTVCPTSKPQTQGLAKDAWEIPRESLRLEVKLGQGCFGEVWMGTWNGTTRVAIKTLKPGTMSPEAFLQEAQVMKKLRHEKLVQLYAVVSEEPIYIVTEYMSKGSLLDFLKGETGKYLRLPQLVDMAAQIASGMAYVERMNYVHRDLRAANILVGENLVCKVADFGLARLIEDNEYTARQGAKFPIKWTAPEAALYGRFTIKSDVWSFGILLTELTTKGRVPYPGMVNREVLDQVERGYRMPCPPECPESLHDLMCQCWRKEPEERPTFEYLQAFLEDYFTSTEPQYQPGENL
Chain of IKKalpha (h) (O15111 whole entry): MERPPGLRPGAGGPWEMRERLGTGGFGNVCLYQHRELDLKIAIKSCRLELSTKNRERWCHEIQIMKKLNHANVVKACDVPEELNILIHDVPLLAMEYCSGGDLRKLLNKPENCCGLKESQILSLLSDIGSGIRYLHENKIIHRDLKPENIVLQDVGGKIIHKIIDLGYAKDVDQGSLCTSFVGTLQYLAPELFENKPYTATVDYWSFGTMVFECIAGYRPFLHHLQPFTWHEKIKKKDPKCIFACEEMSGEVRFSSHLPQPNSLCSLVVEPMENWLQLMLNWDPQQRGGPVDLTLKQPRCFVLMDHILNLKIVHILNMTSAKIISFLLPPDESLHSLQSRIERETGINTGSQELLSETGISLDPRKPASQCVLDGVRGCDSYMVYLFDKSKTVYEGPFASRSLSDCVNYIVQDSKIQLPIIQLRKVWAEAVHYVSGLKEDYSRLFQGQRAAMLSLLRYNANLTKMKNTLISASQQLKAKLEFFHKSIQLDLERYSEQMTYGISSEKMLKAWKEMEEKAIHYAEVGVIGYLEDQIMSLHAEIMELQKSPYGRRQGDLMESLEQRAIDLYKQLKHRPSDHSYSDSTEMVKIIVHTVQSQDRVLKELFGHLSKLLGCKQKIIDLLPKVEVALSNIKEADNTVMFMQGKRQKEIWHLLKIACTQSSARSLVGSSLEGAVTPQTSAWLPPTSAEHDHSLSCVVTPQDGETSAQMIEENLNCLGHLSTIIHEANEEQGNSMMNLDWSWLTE

Take `O=C(Nc1ccc(Nc2ccnc3ccccc23)cc1)c1cccc(Nc2ccnc3ccccc23)c1` [Compound 2a]: the EC50 (as a rule, the concentration needed to bring the measured effect to its halfway point) in assay [1] is 6 ± 1 µM. The “Luciferase Expression (Fold ± SD)” value in assay [2] (0.5 µM) came out at 1.02 ± 0.04 fold; in assay [2] (1 µM), 1.05 ± 0.12 fold; in assay [2] (5 µM), 19.94 ± 4.26 fold; in assay [2] (10 µM), 4.66 ± 1.63 fold; in assay [2] (25 µM), 1.59 ± 0.59 fold. Besides, the inhibition (commonly the percentage by which the read-out fell short of the control) at 10 µM worked out at 70% on IKKalpha (h); 86% at IRK (h) (InsR); 79% at PKCbeta 2 (h); 79% at RAF-1 kinase (h); 94% on Src kinase (h); 98% at TRKA (h).

`O=C(Nc1cccc(Nc2ccnc3ccccc23)c1)c1cccc(Nc2ccnc3ccccc23)c1` [Compound 2b]: the inhibition at 10 µM at IKKalpha (h) is 70%; on IRK (h) (InsR) it was 86%; on PKCbeta 2 (h), 79%; on RAF-1 kinase (h), 79%; on Src kinase (h), 94%; on TRKA (h) it was 98%.

Regarding `O=C(Nc1cccc(Nc2ccnc3ccccc23)c1)c1ccc(Nc2ccnc3ccccc23)cc1` [Compound 2c], the EC50 in assay [1] was found to be 5.6 ± 1 µM.

Regarding `O=C(Nc1ccc(NC(=O)c2cccc(Nc3ccnc4ccccc34)c2)cc1)OCc1ccccc1` [Compound 4a], in assay [1], the EC50 is > 32 µM. The “Luciferase Expression (Fold ± SD)” value in assay [2] (0.5 µM) is 1.05 ± 0.12 fold; in assay [2] (1 µM), 1.02 ± 0.07 fold; in assay [2] (5 µM) it was 1.04 ± 0.16 fold; in assay [2] (10 µM), 1.45 ± 0.39 fold; in assay [2] (25 µM), 1.60 ± 1.00 fold.

Turning to `O=C(Nc1cccc(NC(=O)c2ccc(Nc3ccnc4ccccc34)cc2)c1)OCc1ccccc1` [Compound 4c], in assay [1], the EC50 was 6.1 ± 1 µM. Further, the “fold more potent than 4 against hDNMT3A” value in assay [1] (ratio of EC50 values vs 4) was 3 fold. Moreover, the “Luciferase Expression (Fold ± SD)” value was 0.96 ± 0.01 fold in assay [2] (0.5 µM); 0.87 ± 0.05 fold in assay [2] (1 µM); 40.40 ± 12.75 fold in assay [2] (5 µM); 28.51 ± 3.39 fold in assay [2] (10 µM); 8.07 ± 1.96 fold in assay [2] (25 µM).
